Results on twelve compounds are retold here after patent US12024507B2, “Compounds as GLP-1R agonists” (Terns Pharmaceuticals, Inc., priority 2021, dated 2024).

The target in one data set is T1, human GLP-1R receptor (Homo sapiens, UniProt P43220).
T1 construct: expressed in transfected cells
Briefly: GLP-1R cell assay (cAMP TR-FRET, low expression CHO-K1_hGLP-1Rlow_clone10 cell line). Format: cell-based. To be noted: CHO-K1_hGLP-1Rlow_clone10 cells, relative to control GLP-1 peptide agonist, read-out: GLP1 EC50. How it is done: Stable cell lines expressing high and low GLP-1R surface expression were generated in CHO-K1 cells transfected (Fugene 6) with a puromycin selectable DNA plasmid encoding human GLP-1R receptor (accession number: NM_002062.5) under control of an EF1A promoter. Transfected cells were seeded into 24-well plates (9,000 cells/well) containing complete medium and incubated in a humidified incubator at 37° C. with 5% carbon dioxide. After overnight incubation, medium was replaced with complete medium supplemented with puromycin (6 μg/mL) and refreshed every 2-3 days to select for stably transfected cells. Individual pools of selected cells were expanded prior to analysis for responsiveness to GLP-1 control peptide using a TR-FRET assay to detect cAMP (LANCE Ultra cAMP Assay, Perkin Elmer). Briefly, cells were collected in Versene solution, plated in 384-well plates (1,000 cells/well) and combined with serially diluted GLP-1R control peptide (10 nL) using an acoustic dispenser (ECHO). Plates were incubated for 30 minutes at 25° C. prior to the addition of EU-cAMP tracer (5 μL) and Ulight-anti-cAMP (5 μL) reagents to each well, followed by 15 minutes incubation at 25° C. TR-FRET signal was detected using an EnVision Multimode Plate Reader (excitation=320 nm; emission=615 and 655 nm). Dose-response curves were used to generate EC50 values as a measure of responsiveness to the GLP-1R control peptide. Selected cell lines were monitored for responsiveness over multiple passages to ensure stability. […] Briefly, GLP-1R expression was analyzed by flow cytometry using a fluorescein-labeled Exendin-4 peptide fluorescent probe (FLEX). Cells were harvested in Versene solution and washed 3-times with PBS+0.5% BSA before incubation with FLEX reagent (10 μM) for 2 hours at room temperature. After incubation, cells were washed 3-times in PBS+0.5% BSA before final resuspension in PBS prior to analysis by flow cytometry to measure FLEX mean fluorescence intensity (MFI) as a measure of GLP-1R expression on the cell surface.
For compound testing in the CHO-K1_hGLP-1Rlow_clone10 cell line, cells were seeded in 384-well plates (1,000 cells/well). Test compounds were serially diluted in DMSO (10-point, 3-fold dilution), added to wells using an ECHO dispenser (10 nL/well) and plates were centrifuged for 1 min and agitated for 2 min at room temperature prior to 30-minute incubation at 25° C. After incubation, Eu-cAMP (5 μL) and Ulight-anti-cAMP (5 μL) reagents were added to each well, followed by centrifugation for 1 minute, agitation for 2 minutes at room temperature, and final incubation of the plates at 25° C. for 15 minutes. Plates were read using an EnVision microplate reader (excitation=320 nm; emission=615 and 655 nm). Dose-response curves were generated from duplicate wells based on percent activation calculated relative to a control GLP-1 peptide agonist that was run in parallel. EC50 values were determined by fitting percent activation as a function of compound concentration using the Hill equation (XLfit).
The compounds tested were compound samples prepared according to the General Procedures described in the Examples section.
(In general: Time-resolved FRET reads energy transfer from a long-lived donor to a nearby acceptor.)

Data set [1] is described as follows: Metabolic stability in human hepatocytes. To be noted: cryopreserved hepatocytes, 1×10^6 cells/mL; for CLint scaled at 1 μM: intrinsic clearance; for half-life at 1 μM: read-out: Human T1/2. Format: in vitro ADME. The protocol: (§1) Test compounds were incubated in rat and human hepatocytes and stability was assessed from the substrate […] approach. Test compounds were dissolved in dimethyl sulfoxide (DMSO) to create a 10 mM Stock, and then further diluted to create a 1000×Working Stock of 1 mM with DMSO in 96-well plates for test compounds and the positive control (midazolam). Vials containing cryopreserved hepatocytes were removed from the liquid nitrogen tank and immediately immersed in a 37° C. water bath. The vials were shaken gently until the contents had thawed and were then immediately emptied into 48 mL of pre-warmed HT Medium in a 50 mL conical tube. Cells remaining in the vial were resuspended with 1.0 mL of pre-warmed HT Medium and added to the conical tube. The tube was capped and then gently inverted several times to resuspend the hepatocytes. The cell suspension was centrifuged at 50×g at room temperature for 5 minutes and the supernatant discarded. The cell pellet was loosened by gently swirling the centrifuge tube and was re-suspended in 4 mL of warm Dulbecco's Modified Eagle medium (DMEM). Cell density was determined by a cell counter by Nexcelom, and DMEM medium was added to obtain a target density of 1×10^6 cells/mL. The assay was carried out in 96-well microtiter plates. Test Compounds were incubated at 1 μM with 1×10^6 cells/mL hepatocytes in DMEM for 0, 30, 60, 120 and 240 minutes. The incubation was carried out with gentle shaking at 37° C. under a humid atmosphere of 95% air/5% CO2. The volume of the incubation mixture was 37 μL with a final 0.1% DMSO. At each of the time points, the incubation was stopped by adding 150 μL quenching solution (100% acetonitrile, 0.1% formic acid containing bucetin as an internal standard for positive ESI mode). Subsequently, the mixtures were vortexed for 20 min and centrifuged at 4,000 RPM at 10° C. The supernatant (80 μL) was transferred to a clean 96-well plate and analyzed by LC-MS/MS. Midazolam at 1 μM with a final 0.1% DMSO was included as a positive control to verify assay performance. The percent parent remaining, intrinsic and predicted hepatic clearance and t1/2 were calculated. All samples were analyzed by LC-MS/MS using an AB Sciex API 4000 instrument, coupled to a Shimadzu LC-20AD LC Pump system. Separation was achieved using a Waters Atlantis T3 dC18 reverse phase HPLC column (20 mm×2.1 mm) at a flow rate of 0.5 mL/min. The mobile phase consisted of 0.1% formic acid in water (solvent A) and 0.1% formic acid in 100% acetonitrile (solvent B). Elution conditions are detailed below.
(§2) The ion optics of each test compound were optimized for their declustering potential (DP), […] (CE), collision-cell exit potential (CXP) and used in a selected ion monitoring experiment in the positive ion mode. The peak area ratio of each test compound to internal standard was then evaluated for stability. The extent of metabolism was calculated based on the disappearance of the test compound, compared to its initial concentration. The initial rates of clearance of the test compound were calculated using the linear regression plot of semi-log % remaining of the compound versus time.
(§3) The predicted hepatic clearance (CLhep) was calculated using the well stirred method with the following formula with CLint(in vivo) normalized based on liver weight: CLint(in vivo)=CLint×Hepatocellularity×liver weight CLhep predicted=(CLint(in vivo)×Qliver)/(CLint(in vivo)+Qliver) Where Qliver ((ml/min/kg) is Liver Blood Flow
(§4) The relevant physiological parameters of liver weight, blood flow, and hepatocellularity for various species are listed below:
(§5) Results are presented in the Table B3 below for the intrinsic clearance (mL/min/kg) and half-life (t1/2).

Data set [2] can be described thus: Metabolic stability in rat hepatocytes. Type of data set: in vitro ADME. To be noted: cryopreserved hepatocytes, 1×10^6 cells/mL; for CLint scaled at 1 μM: intrinsic clearance; for half-life at 1 μM: read-out: Rat T1/2. The protocol:
as §1, §2, §3, §4, §5

T1 sequence (P43220 24-463): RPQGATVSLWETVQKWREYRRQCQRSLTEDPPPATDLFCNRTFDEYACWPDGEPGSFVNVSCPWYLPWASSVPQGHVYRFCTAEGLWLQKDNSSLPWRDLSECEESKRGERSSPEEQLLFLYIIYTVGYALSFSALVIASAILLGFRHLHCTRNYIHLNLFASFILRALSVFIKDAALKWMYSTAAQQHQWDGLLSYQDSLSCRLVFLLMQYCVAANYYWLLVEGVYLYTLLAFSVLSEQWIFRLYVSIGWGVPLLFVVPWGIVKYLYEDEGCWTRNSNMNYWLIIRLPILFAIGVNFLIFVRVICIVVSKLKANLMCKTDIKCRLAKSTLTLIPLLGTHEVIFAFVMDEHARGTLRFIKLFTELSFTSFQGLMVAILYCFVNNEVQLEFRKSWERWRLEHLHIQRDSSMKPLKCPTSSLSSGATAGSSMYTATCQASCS

For `N#Cc1ccc(COc2cccc(C3CCN(Cc4nc5ccc(-c6c[nH]c(=O)o6)cc5n4Cc4cncs4)CC3)n2)c(F)c1` [Compound 12, 3-fluoro-4-(((6-(1-((6-(2-oxo-2,3-dihydrooxazol-5-yl)-1-(thiazol-5-ylmethyl)-1H-benzo[d]imidazol-2-yl)methyl)piperidin-4-yl)pyridin-2-yl)oxy)methyl)benzonitrile], the EC50 on human GLP-1R receptor came out at 704 nM.

Regarding `N#Cc1ccc(COc2cccc(C34CCN(Cc5nc6ccc(-c7nnn[nH]7)cc6n5Cc5cncs5)CC3C4)n2)c(F)c1` (centres unmarked) [Compound 10, 4-(((6-(3-((6-(1H-tetrazol-5-yl)-1-(thiazol-5-ylmethyl)-1H-benzo[d]imidazol-2-yl)methyl)-3-azabicyclo[4.1.0]heptan-6-yl)pyridin-2-yl)oxy)methyl)-3-fluorobenzonitrile], at human GLP-1R receptor, the EC50 was 118 nM. As for `CC1(c2ccc(C#N)cc2F)Oc2cccc(C3CCN(Cc4nc5ccc(-c6nnn[nH]6)cc5n4C[C@@H]4CCO4)CC3)c2O1` (stereo partly drawn) [Compound 16, 3-fluoro-4-(2-methyl-4-(1-((1-(((S)-oxetan-2-yl)methyl)-6-(1H-tetrazol-5-yl)-1H-benzo [d]imidazol-2-yl)methyl)piperidin-4-yl)benzo[d][1,3]dioxol-2-yl)benzonitrile], in data set [1], the CLint scaled at 1 μM is 6.22 ± 0.55 mL/min/kg and the half-life at 1 μM was 6.44 ± 0.571 h. Further, on human GLP-1R receptor, the EC50 turned out to be 2.68 nM. In data set [2], the CLint scaled at 1 μM amounted to 6.93 mL/min/kg and the half-life at 1 μM was found to be 8 h. Regarding `N#Cc1ccc(COc2cccc(C3CCN(Cc4nc5ccc(C6=CC(=O)NC6=O)cc5n4Cc4cncs4)CC3)n2)c(F)c1` [Compound 9, 4-(((6-(1-((6-(2,5-dioxo-2,5-dihydro-1H-pyrrol-3-yl)-1-(thiazol-5-ylmethyl)-1H-benzo[d]imidazol-2-yl)methyl)piperidin-4-yl)pyridin-2-yl)oxy)methyl)-3-fluorobenzonitrile], on human GLP-1R receptor, the EC50 amounted to 461 nM. On the same count and under the same terms, in the case of `CS(=O)(=O)NC(=O)c1ccc2nc(CN3CCN(c4cccc(OCc5ccc(C#N)cc5F)n4)CC3)n(Cc3ncco3)c2c1` [Compound 4, 2-((4-(6-((4-cyano-2-fluorobenzyl)oxy)pyridin-2-yl)piperazin-1-yl)methyl)-N-(dioxo-l5-sulfaneyl)-1-(oxazol-2-ylmethyl)-1H-benzo[d]imidazole-6-carboxamide] it was 231 nM; in that of `O=c1nc(-c2ccc3nc(CN4CCN(c5cccc(OCc6ccc(Br)cc6F)n5)CC4)n(C[C@@H]4CCO4)c3c2)[nH]o1` [Compound 7, (S)-3-(2-((4-(6-((4-bromo-2-fluorobenzyl)oxy)pyridin-2-yl)piperazin-1-yl)methyl)-1-(oxetan-2-ylmethyl)-1H-benzo[d]imidazol-6-yl)-1,2,4-oxadiazol-5(2H)-one], 148 nM; in that of `N#Cc1ccc(COc2cccc(C3CCN(Cc4nc5ccc(C(=O)NO)cc5n4C[C@@H]4CCO4)CC3)n2)c(F)c1` [Compound 14, (S)-2-((4-(6-((4-cyano-2-fluorobenzyl)oxy)pyridin-2-yl)piperidin-1-yl)methyl)-N-hydroxy-1-(oxetan-2-ylmethyl)-1H-benzo[d]imidazole-6-carboxamide], 50 nM. `N#Cc1ccc(COc2cccc(N3CCN(Cc4nc5ccc(C(=O)NCC(F)(F)F)cc5n4Cc4ncco4)CC3)n2)c(F)c1` [Compound 3, 2-((4-(6-((4-cyano-2-fluorobenzyl)oxy)pyridin-2-yl)piperazin-1-yl)methyl)-1-(oxazol-2-ylmethyl)-N-(2,2,2-trifluoroethyl)-1H-benzo[d]imidazole-6-carboxamide]: at human GLP-1R receptor, the EC50 is 5940 nM. Take `N#Cc1ccc(COc2cccc(C3CCN(Cc4nc5ccc(-c6nnn[nH]6)cc5n4Cc4cncs4)CC3)n2)c(F)c1` [Compound 11, 4-(((6-(1-((6-(1H-tetrazol-5-yl)-1-(thiazol-5-ylmethyl)-1H-benzo[d]imidazol-2-yl)methyl)piperidin-4-yl)pyridin-2-yl)oxy)methyl)-3-fluorobenzonitrile]: in data set [1], the CLint scaled at 1 μM turned out to be 19.7 ± 0.4 mL/min/kg and the half-life at 1 μM is 2.03 ± 0.041 h. At human GLP-1R receptor, the EC50 is 53.2 nM. For the same compound, in data set [2], the intrinsic clearance (CLint scaled) at 1 μM was 68.3 ± 2.52 mL/min/kg and the half-life at 1 μM is 0.812 ± 0.03 h. Regarding `N#Cc1ccc(COc2cccc(C3CCN(Cc4nc5ccc(-c6nc(=O)o[nH]6)cc5n4C[C@@H]4CCO4)CC3)n2)c(F)c1` [Compound 5, (S)-3-fluoro-4-(((6-(1-((1-(oxetan-2-ylmethyl)-6-(5-oxo-2,5-dihydro-1,2,4-oxadiazol-3-yl)-1H-benzo[d]imidazol-2-yl)methyl)piperidin-4-yl)pyridin-2-yl)oxy)methyl)benzonitrile], on human GLP-1R receptor, the EC50 was determined as 45.4 nM. As for `N#Cc1ccc(COc2cccc(C3CCN(Cc4nc5ccc(C6(O)COC6)cc5n4Cc4cncs4)CC3)n2)c(F)c1` [Compound 15, 3-fluoro-4-(((6-(1-((6-(3-hydroxyoxetan-3-yl)-1-(thiazol-5-ylmethyl)-1H-benzo[d]imidazol-2-yl)methyl)piperidin-4-yl)pyridin-2-yl)oxy)methyl)benzonitrile], the EC50 at human GLP-1R receptor was over 10000 nM. The same measure, in the same setting: then `O=c1cc(-c2ccc3nc(CN4CCC(c5cccc(OCc6ccc(Cl)cc6F)n5)CC4)n(C[C@@H]4CCO4)c3c2)o[nH]1` [Compound 6, (S)-5-(2-((4-(6-((4-chloro-2-fluorobenzyl)oxy)pyridin-2-yl)piperidin-1-yl)methyl)-1-(oxetan-2-ylmethyl)-1H-benzo[d]imidazol-6-yl)isoxazol-3(2H)-one], with 10.6 nM.

By EC50 is commonly meant the midpoint of the concentration-response curve. The term CLint scaled denotes a measure of how fast metabolising enzymes remove a compound, apart from limits set by blood flow. Low readings indicate slow turnover, high ones rapid turnover.
